Data reported in ChEMBL document CHEMBL5625190, “Novel fused imidazotriazines acting as promising top. II inhibitors and apoptotic inducers with greater selectivity against head and neck tumors: Design, synthesis, and biological assessments” (Eur J Med Chem, 2023).
In brackets after ≈: the same amount, converted by molar mass.

Experiments:
HNO 97 cell line [1] = assay: Growth inhibition of human HNO 97 cell line assessed as reduction in cell viability at 100 ug/ml by SRB colorimetric assay relative to control; format: functional; conditions: read-out: GI
Huh-7 = assay: Growth inhibition of human Huh-7 cells assessed as reduction in cell viability at 100 ug/ml by SRB colorimetric assay relative to control; format: functional; conditions: read-out: GI
HNO 97 cell line [2] = assay: Antioxidant activity against human HNO 97 cell line assessed as MDA level measured after 48 hrs relative to control; format: functional
[3] = Downregulation of IL-6 expression in human HNO 97 cell line assessed as fold change by sandwich ELISA analysis; format: functional
HepG2 [4] = assay: Growth inhibition of human HepG2 cells assessed as reduction in cell viability at 100 ug/ml by SRB colorimetric assay relative to control; format: functional; conditions: read-out: GI
[5] = Upregulation of BAX expression in human HNO 97 cell line assessed as fold change by sandwich ELISA analysis; format: functional
HNO 97 cell line [6] = assay: Induction of cell cycle arrest in human HNO 97 cell line assessed as increase in cell level at G2-M phase by flow cytometry analysis (reference value: 0.66%); format: functional
NCI-H460 = assay: Growth inhibition of human NCI-H460 cells assessed as reduction in cell viability at 100 ug/ml by SRB colorimetric assay relative to control; format: functional; conditions: read-out: GI
HNO 97 cell line [7] = assay: Growth inhibition of human HNO 97 cell line assessed as reduction in cell viability by SRB colorimetric assay; format: functional, cell-based
MCF7 = assay: Growth inhibition of human MCF7 cells assessed as reduction in cell viability at 100 ug/ml by SRB colorimetric assay relative to control; format: functional; conditions: read-out: GI
[8] = Upregulation of p53 expression in human HNO 97 cell line assessed as fold change by sandwich ELISA analysis; format: functional
[9] = molecular target: DNA topoisomerase 2-beta (Homo sapiens) (UniProt Q02880); assay: Inhibition of human DNA topoisomerase 2-beta by ELISA method relative to control; conditions: concentration not given here
MG-63 = assay: Growth inhibition of human MG-63 cells assessed as reduction in cell viability at 100 ug/ml by SRB colorimetric assay relative to control; format: functional; conditions: read-out: GI
[10] = Growth inhibition of human Oral epithelial cell assessed as reduction in cell viability at 100 ug/ml by SRB colorimetric assay relative to control; format: toxicity, cell-based; conditions: oral epithelial cells, at 100 µg/mL, read-out: GI
HNO 97 cell line [11] = assay: Antioxidant activity against human HNO 97 cell line assessed as increase in GSH level measured after 48 hrs by Ellmans method relative to control; format: functional
Caco-2 = assay: Growth inhibition of human Caco-2 cells assessed as reduction in cell viability at 100 ug/ml by SRB colorimetric assay relative to control; format: functional; conditions: read-out: GI
HNO 97 cell line [12] = assay: Induction of apoptosis in human HNO 97 cell line assessed as increase in early apoptotic cells by Annexin-V/PI staining based analysis (reference value: 0.23%); format: functional
HepG2 [13] = assay: Growth inhibition of human HepG2 cell line assessed as reduction in cell viability by SRB colorimetric assay; format: functional, cell-based
[14] = Downregulation of BCL2 expression in human HNO 97 cell line assessed as fold change by sandwich ELISA analysis; format: functional
HCT-116 = assay: Growth inhibition of human HCT-116 cells assessed as reduction in cell viability at 100 ug/ml by SRB colorimetric assay relative to control; format: functional; conditions: read-out: GI
A549 = assay: Growth inhibition of human A549 cells assessed as reduction in cell viability at 100 ug/ml by SRB colorimetric assay relative to control; format: functional; conditions: read-out: GI
HNO 97 cell line [15] = assay: Induction of apoptosis in human HNO 97 cell line assessed as increase in late apoptotic cells by Annexin-V/PI staining based analysis (reference value: 0.12%); format: functional
BT-474 = assay: Growth inhibition of human BT-474 cells assessed as reduction in cell viability at 100 ug/ml by SRB colorimetric assay relative to control; format: functional; conditions: read-out: GI
MDA-MB-231 [16] = assay: Growth inhibition of human MDA-MB-231 cell line assessed as reduction in cell viability by SRB colorimetric assay; format: functional, cell-based
PC-3 = assay: Growth inhibition of human PC-3 cells assessed as reduction in cell viability at 100 ug/ml by SRB colorimetric assay relative to control; format: functional; conditions: read-out: GI
MDA-MB-231 [17] = assay: Growth inhibition of human MDA-MB-231 cells assessed as reduction in cell viability at 100 ug/ml by SRB colorimetric assay relative to control; format: functional; conditions: read-out: GI
HNO 97 cell line [18] = assay: Antioxidant activity against human HNO 97 cell line assessed as NO level measured after 48 hrs relative to control; format: functional
A-375 = assay: Growth inhibition of human A-375 cells assessed as reduction in cell viability at 100 ug/ml by SRB colorimetric assay relative to control; format: functional; conditions: read-out: GI
HNO 97 cell line [19] = assay: Induction of cell cycle arrest in human HNO 97 cell line assessed as increase in cell level at S phase by flow cytometry analysis (reference value: 23.37%); format: functional
Calf thymus DNA = assay: Displacement of methyl green from calf thymus DNA assessed as DNA intercalation measured after 24 hrs; format: nucleic-acid assay, Bos taurus
HL-60 = assay: Antiproliferative activity against human HL-60 cells; format: functional, cell-based
[20] = molecular target: T1, DNA topoisomerase 2-alpha (Homo sapiens, UniProt P11388); assay: Inhibition of human DNA topoisomerase 2alpha
[21] = molecular target: T1, DNA topoisomerase 2-alpha; assay: Inhibition of human DNA topoisomerase 2alpha using supercoiled pHot1 DNA as substrate incubated for 30 mins

Sequence of DNA topoisomerase 2-beta (Homo sapiens) (Q02880 whole entry): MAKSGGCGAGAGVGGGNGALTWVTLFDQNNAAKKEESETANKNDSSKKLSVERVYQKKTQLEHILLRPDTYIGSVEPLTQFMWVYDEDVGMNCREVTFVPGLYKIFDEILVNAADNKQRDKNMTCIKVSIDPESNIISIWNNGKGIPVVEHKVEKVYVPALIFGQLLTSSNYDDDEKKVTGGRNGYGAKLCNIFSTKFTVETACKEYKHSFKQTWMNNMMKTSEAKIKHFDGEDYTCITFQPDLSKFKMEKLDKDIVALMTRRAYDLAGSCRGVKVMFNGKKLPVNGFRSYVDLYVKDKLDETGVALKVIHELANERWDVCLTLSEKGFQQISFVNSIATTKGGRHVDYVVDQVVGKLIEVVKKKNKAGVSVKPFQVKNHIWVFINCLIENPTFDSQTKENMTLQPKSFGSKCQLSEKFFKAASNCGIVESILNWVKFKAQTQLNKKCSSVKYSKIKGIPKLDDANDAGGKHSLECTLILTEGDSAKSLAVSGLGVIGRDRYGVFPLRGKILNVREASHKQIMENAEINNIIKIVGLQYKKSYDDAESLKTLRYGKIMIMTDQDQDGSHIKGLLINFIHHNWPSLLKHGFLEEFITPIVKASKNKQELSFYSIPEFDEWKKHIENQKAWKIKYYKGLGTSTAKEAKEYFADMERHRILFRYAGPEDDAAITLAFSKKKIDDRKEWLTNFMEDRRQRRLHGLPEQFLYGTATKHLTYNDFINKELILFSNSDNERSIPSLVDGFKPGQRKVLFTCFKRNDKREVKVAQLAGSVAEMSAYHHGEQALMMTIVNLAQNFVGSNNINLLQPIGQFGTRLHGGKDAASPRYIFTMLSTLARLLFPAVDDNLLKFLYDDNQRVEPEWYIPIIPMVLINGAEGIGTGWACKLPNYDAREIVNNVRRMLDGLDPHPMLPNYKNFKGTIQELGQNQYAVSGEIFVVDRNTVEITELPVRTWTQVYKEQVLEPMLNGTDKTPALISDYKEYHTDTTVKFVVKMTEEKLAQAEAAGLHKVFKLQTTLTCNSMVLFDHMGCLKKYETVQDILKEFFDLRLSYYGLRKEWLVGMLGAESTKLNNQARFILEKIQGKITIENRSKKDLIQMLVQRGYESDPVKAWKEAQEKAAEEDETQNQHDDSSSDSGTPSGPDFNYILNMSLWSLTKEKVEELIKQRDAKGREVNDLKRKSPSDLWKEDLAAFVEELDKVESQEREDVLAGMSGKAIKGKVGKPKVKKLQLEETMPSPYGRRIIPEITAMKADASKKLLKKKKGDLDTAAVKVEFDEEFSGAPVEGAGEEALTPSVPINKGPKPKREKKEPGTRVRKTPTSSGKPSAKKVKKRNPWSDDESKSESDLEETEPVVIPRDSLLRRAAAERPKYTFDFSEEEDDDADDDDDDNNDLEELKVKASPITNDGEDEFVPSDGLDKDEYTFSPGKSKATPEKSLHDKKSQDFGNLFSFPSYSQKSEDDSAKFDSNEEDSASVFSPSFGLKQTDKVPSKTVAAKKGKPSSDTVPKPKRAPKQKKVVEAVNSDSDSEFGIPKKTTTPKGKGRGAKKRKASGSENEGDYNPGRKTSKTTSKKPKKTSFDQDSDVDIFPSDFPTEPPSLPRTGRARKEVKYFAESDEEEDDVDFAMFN
T1 sequence (P11388 whole entry): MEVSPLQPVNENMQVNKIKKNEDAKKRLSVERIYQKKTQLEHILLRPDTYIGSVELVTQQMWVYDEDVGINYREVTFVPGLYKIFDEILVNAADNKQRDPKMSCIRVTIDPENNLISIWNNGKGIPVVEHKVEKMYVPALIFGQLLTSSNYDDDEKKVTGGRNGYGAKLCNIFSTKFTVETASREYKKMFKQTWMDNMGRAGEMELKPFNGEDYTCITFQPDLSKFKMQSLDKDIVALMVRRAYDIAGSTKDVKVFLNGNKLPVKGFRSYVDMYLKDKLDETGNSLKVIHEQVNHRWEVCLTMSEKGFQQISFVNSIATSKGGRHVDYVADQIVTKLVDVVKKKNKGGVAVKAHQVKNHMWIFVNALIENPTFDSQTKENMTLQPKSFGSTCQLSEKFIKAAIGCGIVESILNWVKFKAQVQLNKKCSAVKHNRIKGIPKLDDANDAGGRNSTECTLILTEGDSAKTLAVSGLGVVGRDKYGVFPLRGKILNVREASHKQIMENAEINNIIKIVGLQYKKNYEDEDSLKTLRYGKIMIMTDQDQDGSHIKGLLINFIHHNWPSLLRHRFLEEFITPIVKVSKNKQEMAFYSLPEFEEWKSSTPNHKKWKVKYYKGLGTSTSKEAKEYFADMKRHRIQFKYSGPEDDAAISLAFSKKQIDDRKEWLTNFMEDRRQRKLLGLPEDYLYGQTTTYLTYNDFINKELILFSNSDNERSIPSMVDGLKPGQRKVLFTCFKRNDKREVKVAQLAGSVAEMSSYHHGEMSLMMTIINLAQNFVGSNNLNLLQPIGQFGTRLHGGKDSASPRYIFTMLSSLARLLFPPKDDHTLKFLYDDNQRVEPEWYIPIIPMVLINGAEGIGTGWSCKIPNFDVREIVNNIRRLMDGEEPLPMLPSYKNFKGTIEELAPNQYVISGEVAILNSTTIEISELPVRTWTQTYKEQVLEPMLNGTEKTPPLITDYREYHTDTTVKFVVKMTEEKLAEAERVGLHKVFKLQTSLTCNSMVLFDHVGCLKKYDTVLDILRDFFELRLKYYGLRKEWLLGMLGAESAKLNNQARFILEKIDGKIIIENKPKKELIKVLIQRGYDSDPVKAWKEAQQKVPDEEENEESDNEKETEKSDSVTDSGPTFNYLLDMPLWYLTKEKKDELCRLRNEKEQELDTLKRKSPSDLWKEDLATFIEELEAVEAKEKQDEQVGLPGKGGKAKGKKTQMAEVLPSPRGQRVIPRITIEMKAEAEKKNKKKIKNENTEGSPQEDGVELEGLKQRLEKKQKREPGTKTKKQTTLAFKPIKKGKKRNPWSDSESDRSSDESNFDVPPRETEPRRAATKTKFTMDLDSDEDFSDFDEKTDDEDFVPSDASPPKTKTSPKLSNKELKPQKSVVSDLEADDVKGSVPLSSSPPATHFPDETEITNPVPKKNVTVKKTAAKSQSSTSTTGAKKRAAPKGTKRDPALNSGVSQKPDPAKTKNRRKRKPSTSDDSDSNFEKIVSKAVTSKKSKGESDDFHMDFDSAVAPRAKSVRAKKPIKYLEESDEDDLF

inhibition [9] [%] | IC50 (HepG2 [13]) [µg/mL] | IC50 (MDA-MB-231 [16]) [µg/mL] | SMILES | inhibition of growth at 100 µg/mL (HNO 97 cell line [1]) [%] | inhibition of growth at 100 µg/mL (Huh-7) [%] | Activity (HNO 97 cell line [2]) [%] | fold change (FC) [3] | inhibition of growth at 100 µg/mL (HepG2 [4]) [%] | inhibition of growth at 100 µg/mL (NCI-H460) [%] | IC50 (HNO 97 cell line [7]) [µg/mL] | inhibition of growth at 100 µg/mL (MCF7) [%] | inhibition of growth at 100 µg/mL (MG-63) [%] | inhibition at 100 ug/ml [10] [%] | inhibition of growth at 100 µg/mL (Caco-2) [%] | inhibition of growth at 100 µg/mL (HCT-116) [%] | inhibition of growth at 100 µg/mL (A549) [%] | inhibition of growth at 100 µg/mL (BT-474) [%] | inhibition of growth at 100 µg/mL (PC-3) [%] | inhibition of growth at 100 µg/mL (MDA-MB-231 [17]) [%] | inhibition of growth at 100 µg/mL (A-375) [%] | further results
87.9 | 9 (≈ 27.1 µM) | 10 (≈ 30.1 µM) | NC1=Nc2nc3ccccc3n2C(c2ccc(Cl)cc2Cl)N1 (stereo unspecified) | 82.6 | 73.6 | 46.33 | 0.64 | 76.5 | 71.8 | 4 (≈ 12 µM) | 72.6 | 66.7 | 62.8 | 63.4 | 51.8 | 69 | 52.4 | 74.3 | 71.5 | 67.2 | fold change (FC) [5]: 2.46; Activity (HNO 97 cell line [6]): 27.94%; fold change (FC) [8]: 2.32; Activity (HNO 97 cell line [11]): 177.01%; Activity (HNO 97 cell line [12]): 4.99%; fold change (FC) [14]: 0.15; Activity (HNO 97 cell line [15]): 1.42%; Activity (HNO 97 cell line [18]): 56.5%; Activity (HNO 97 cell line [19]): 46.4%
81.7 | 4.8 (≈ 14.4 µM) | 4 (≈ 12 µM) | NC1=Nc2nc3ccccc3n2C(c2ccc(Cl)c(Cl)c2)N1 (stereo unspecified) | 78 | 72.5 | 51.93 | 0.67 | 63.6 | 73.4 | 3 (≈ 9.03 µM) | 62 | 66.4 | 41.6 | 50.7 | 51.1 | 67.5 | 57.7 | 75.5 | 75 | 63 | fold change (FC) [5]: 2.39; Activity (HNO 97 cell line [6]): 4.99%; fold change (FC) [8]: 2.16; Activity (HNO 97 cell line [11]): 189.32%; Activity (HNO 97 cell line [12]): 9.27%; fold change (FC) [14]: 0.24; Activity (HNO 97 cell line [15]): 0.9%; Activity (HNO 97 cell line [18]): 62.06%; Activity (HNO 97 cell line [19]): 58.07%
– | – | – | O=C(NNC(=O)c1ccc(Nc2nc3ccccc3n3cnnc23)cc1)NC1CCCCC1 | – | – | – | – | – | – | – | – | – | – | – | – | – | – | – | – | – | IC50 (Calf thymus DNA): 25.3 µM
– | – | – | O=C(N/N=C/c1ccncc1)c1cccc2c(=O)c3ccccc3[nH]c12 | – | – | – | – | – | – | – | – | – | – | – | – | – | – | – | – | – | IC50 (HL-60): 0.48 µM; IC50 [20]: 2.26 µM
– | – | – | CCCc1nnc2c3ccccc3c(N/N=C/c3ccc([N+](=O)[O-])cc3)nn12 | – | – | – | – | – | – | – | – | – | – | – | – | – | – | – | – | – | IC50 [21]: 7.02 µM; IC50 (Calf thymus DNA): 26.2 µM
86.4 | 4.6 (≈ 8.46 µM) | 8.6 (≈ 15.8 µM) | COc1cccc2c1C(=O)c1c(O)c3c(c(O)c1C2=O)C[C@@](O)(C(=O)CO)C[C@@H]3O[C@H]1C[C@H](N)[C@H](O)[C@H](C)O1 [DOXORUBICIN] | 80.3 | 74.8 | – | – | 59.3 | 73.6 | 9 (≈ 16.6 µM) | 69 | 69.9 | 70.4 | 80.8 | 71.3 | 49 | 44.7 | 68 | 78.2 | 64.1 | –
